Results reported in patent US20190125786A1, “NOBLE GAS MODULATION OF IL-12” (NOBILIS THERAPEUTICS, INC., priority 2016, published 2019).

Tests used:
[1] = test system: CD1c dendritic cells; test: Suppression of Alzheimer's peptide induced dendritic cell IL-12 production (ELISA); format: cell-based, healthy volunteers; settings: monocyte-derived CD1c dendritic cells; 1 ug/ml LPS and 10 μM Aβ (1-42) for 24 h; supernatant ELISA; FIG. 2
Protocol: Monocytes from adherent PBMC were isolated as described in Example 1. Dendritic cells were generated by 7 day culture in IL-4 (10 ng/ml) and GM-CSF (20 ng/ml). Media was changed every two days. On day 7, purification of CD1c dendritic cells was performed and cells were cultured in control media, 1 ug/ml LPS and 10 μM of amyloid beta peptide Aβ (1-42) for 24 h. Supernatant was collected and assessed for IL-12 production by ELISA.

[2] = test system: monocytes (adherent peripheral blood mononuclear cells); test: Suppression of Alzheimer's peptide induced monocyte TNF-alpha production (ELISA); format: cell-based, healthy volunteers; settings: adherent cells cultured 1 hour or 2 hours in 30% xenon by volume; 1 ug/ml LPS and 10 μM Aβ (1-42) for 24 h; supernatant ELISA; FIG. 1
Protocol: 10 ml of heparinized blood was extracted from healthy volunteers and peripheral blood mononuclear cells were isolated by centrifugation over a ficoll gradient. Cells were subsequently washed in 2× volume phosphate buffered saline, and resuspended in RPMI media supplemented with 10% fetal calf serum. Cells were incubated at a concentration of 10 million cells per ml in 6-well plates in a volume of 2 ml per well. Cells were cultured for 24 hours at 37 Celsius in a fully humidified atmosphere with 5% CO2, subsequent to which non-adherent cells were removed by washing with PBS. Adherent cells were subsequently divided into […], one plate incubated at normoxic tissue culture, the second plate cultured for 1 hour in 30% xenon by volume, and the third tissue cultured for 2 hours in 30% volume. Cells were treated with control media, 1 ug/ml LPS and 10 μM of amyloid beta peptide Aβ (1-42) for 24 h. Supernatant was collected and assessed for TNF-alpha production by ELISA.

Compound: [Xe] [xenon gas, xenon]
- induced IL-12 production [1]: suppression of induced IL-12 production was observed
- induced TNF-alpha production [2]: suppression of induced TNF-alpha production was observed
